For orientation: Ki means a dissociation constant, usually derived from enzyme kinetics or from competition with a known ligand. A high value points to lower affinity.

A value given as a limit tells only on which side of the number the result lay.

For this experiment, the target named is VMAT2 (human platelet homogenate) (Homo sapiens (Human), UniProt Q05940). Put plainly: Human VMAT2 Ki, slightly modified competition binding procedure (Table 11).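 Also: competition binding with 90 min incubation at 25 °C, after which filter-retained radioligand was measured by scintillation counting.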 To be noted: 10 nM 3H-dihydrotetrabenazine.
Chain of VMAT2 (human platelet homogenate) (Q05940 whole entry): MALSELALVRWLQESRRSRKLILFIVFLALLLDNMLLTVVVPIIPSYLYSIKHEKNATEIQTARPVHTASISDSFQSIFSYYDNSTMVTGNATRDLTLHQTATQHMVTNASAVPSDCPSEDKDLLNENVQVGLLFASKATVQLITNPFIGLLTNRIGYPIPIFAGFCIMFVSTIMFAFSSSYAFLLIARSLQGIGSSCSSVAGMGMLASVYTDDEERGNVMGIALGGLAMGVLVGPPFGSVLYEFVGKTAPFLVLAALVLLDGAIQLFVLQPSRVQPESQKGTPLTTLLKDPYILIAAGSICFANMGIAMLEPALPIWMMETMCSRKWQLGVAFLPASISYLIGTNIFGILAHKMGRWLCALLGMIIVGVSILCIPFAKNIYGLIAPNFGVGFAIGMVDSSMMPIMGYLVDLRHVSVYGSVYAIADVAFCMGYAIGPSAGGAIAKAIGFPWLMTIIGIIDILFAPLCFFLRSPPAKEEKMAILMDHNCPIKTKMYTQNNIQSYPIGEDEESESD
Experimental: Following incubation at 25° C. for 90 minutes, bound radioligand was collected by rapid filtration onto GF/B glass fiber filters using a Unifilter-96 Harvester (PerkinElmer). Filter plates were pre-treated with 0.1% polyethylenimine and allowed to dry overnight, and following harvesting the filter plates were washed with 800 d VMAT2 binding buffer. Bound radioligand was quantified by scintillation counting using a Topcount NXT (PerkinElmer).
Compound `COc1cc2c(cc1OC)[C@H]1C[C@@H](COC(=O)CCC(N)=O)[C@H](CC(C)C)CN1CC2` [Compound 2-1, [(2R,3S,11bR)-9,10-dimethoxy-3-(2-methylpropyl)-1H,2H,3H,4H,6H,7H,11bH-pyrido[2,1-a]isoquinolin-2-yl]methyl 3-carbamoylpropanoate] yielded a Ki of less than 10 nM. `COc1cc2c(cc1OC)[C@H]1C[C@@H](COC(=O)CCN3CCOCC3)[C@H](CC(C)C)CN1CC2` [Compound 2-2, [(2R,3S,11bR)-9,10-dimethoxy-3-(2-methylpropyl)-1H,2H,3H,4H,6H,7H,11bH-pyrido[2,1-a]isoquinolin-2-yl]methyl 3-(morpholin-4-yl)propanoate] yielded a Ki of less than 10 nM. Compound `COc1cc2c(cc1OC)[C@H]1C[C@@H](COC(=O)CCn3c(=O)[nH]c4ccccc4c3=O)[C@H](CC(C)C)CN1CC2` [Compound 2-3, [(2R,3S,11bR)-9,10-dimethoxy-3-(2-methylpropyl)-1H,2H,3H,4H,6H,7H,11bH-pyrido[2,1-a]isoquinolin-2-yl]methyl 3-(2,4-dioxo-1,2,3,4-tetrahydroquinazolin-3-yl)propanoate] gave a Ki of less than 10 nM. The same measure for `COc1cc2c(cc1OC)[C@H]1C[C@@H](COC(=O)CCC(=O)N(C)C)[C@H](CC(C)C)CN1CC2` [Compound 2-4, [(2R,3S,11bR)-9,10-dimethoxy-3-(2-methylpropyl)-1H,2H,3H,4H,6H,7H,11bH-pyrido[2,1-a]isoquinolin-2-yl]methyl 3-(dimethylcarbamoyl)propanoate]: less than 10 nM; for `CCS(=O)(=O)NCCC(=O)OC[C@@H]1C[C@@H]2c3cc(OC)c(OC)cc3CCN2C[C@H]1CC(C)C` [Compound 2-5, [(2R,3S,11bR)-9,10-dimethoxy-3-(2-methylpropyl)-1H,2H,3H,4H,6H,7H,11bH-pyrido[2,1-a]isoquinolin-2-yl]methyl 3-ethanesulfonamidopropanoate]: less than 10 nM; for `COc1cc2c(cc1OC)[C@H]1C[C@@H](COC(=O)[C@@H]3CCN(Cc4ccccc4)C3)[C@H](CC(C)C)CN1CC2` [Compound 2-6, [(2R,3S,11bR)-9,10-dimethoxy-3-(2-methylpropyl)-1H,2H,3H,4H,6H,7H,11bH-pyrido[2,1-a]isoquinolin-2-yl]methyl (3R)-1-benzylpyrrolidine-3-carboxylate]: less than 10 nM. `COc1cc2c(cc1OC)[C@H]1C[C@@H](COC(=O)CCN(C)C)[C@H](CC(C)C)CN1CC2` [Compound 2-7, [(2R,3S,11bR)-9,10-dimethoxy-3-(2-methylpropyl)-1H,2H,3H,4H,6H,7H,11bH-pyrido[2,1-a]isoquinolin-2-yl]methyl 3-(dimethylamino)propanoate] registered a Ki of less than 10 nM. Compound `COc1cc2c(cc1OC)[C@H]1C[C@@H](COC(=O)CN3C[C@@H](C)O[C@@H](C)C3)[C@H](CC(C)C)CN1CC2` [Compound 2-8, [(2R,3S,11bR)-9,10-dimethoxy-3-(2-methylpropyl)-1H,2H,3H,4H,6H,7H,11bH-pyrido[2,1-a]isoquinolin-2-yl]methyl 2-[(2R,6S)-2,6-dimethylmorpholin-4-yl]acetate] returned a Ki of less than 10 nM. As for `COc1cc2c(cc1OC)[C@H]1C[C@@H](COC(=O)CC(N)=O)[C@H](CC(C)C)CN1CC2` [Compound 2-9, [(2R,3S,11bR)-9,10-dimethoxy-3-(2-methylpropyl)-1H,2H,3H,4H,6H,7H,11bH-pyrido[2,1-a]isoquinolin-2-yl]methyl 2-carbamoylacetate], the inhibition constant Ki is less than 10 nM.

Compound `COc1cc2c(cc1OC)[C@H]1C[C@@H](COC(=O)[C@@H]3CCCN(Cc4ccccc4)C3)[C@H](CC(C)C)CN1CC2` [Compound 2-11, [(2R,3S,11bR)-9,10-dimethoxy-3-(2-methylpropyl)-1H,2H,3H,4H,6H,7H,11bH-pyrido[2,1-a]isoquinolin-2-yl]methyl (3R)-1-benzylpiperidine-3-carboxylate] came in with an inhibitory constant (Ki) of less than 10 nM.

The values are drawn from patent US11053242B2, “[9,10-dimethoxy-3-(2-methylpropyl)-1H,2H,3H,4H,6H,7H,11BH-pyrido-[2,1-a]isoquinolin-2-yl]methanol and compounds, compositions and methods relating thereto” (Neurocrine Biosciences, Inc., priority 2015, dated 2021).
